13 compounds from PubChem BioAssay (NCI) can be followed below.

Some test systems named below: PC-3 prostate; OVCAR-3 ovarian; SW-620 colon; 786-0 renal; U251 CNS; SNB-75 CNS; NCI/ADR-RES ovarian; UO-31 renal; A549 NSCLC; SF-268 CNS.
Assay in all cases: inhibition of tumour cell growth, NCI panel, 48 h

Each structure is given as a SMILES string.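 In this assay, cells in 96-well plates receive the compound at five concentrations for 48 hours. Endpoints are linearly interpolated between the surrounding concentrations. The concentration for 50% growth inhibition is given as GI50. TGI is the concentration that stops growth completely.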 Some results are limits rather than exact numbers.

For the compound `Cc1ccccc1NC(=O)Cc1csc(N/N=C2\NC(=O)/C(=C/c3cccc([N+](=O)[O-])c3)S2)n1`, the TGI in the test on PC-3 prostate was 33.5 µM; in the test with OVCAR-3 ovarian it was 52.3 µM; with SW-620 colon, over 100 µM; with 786-0 renal, over 100 µM; in the test with U251 CNS, 53.8 µM; in the test on SNB-75 CNS, 34 µM. The values for the TGI in the test on NCI/ADR-RES ovarian, in the test on UO-31 renal and in the test on A549 NSCLC were over 100 µM, 25.8 µM and 44.5 µM, respectively.

On to `CC(C)NC(=O)OCc1c(COC(=O)NC(C)C)c(-c2ccc[n+](COC(=O)Cc3ccccc3)c2)n2c1CCC2`, for which the TGI is over 100 µM in the test with PC-3 prostate; over 100 µM in the test with OVCAR-3 ovarian; 50.5 µM in the test on SW-620 colon; 44.4 µM in the test on 786-0 renal; over 100 µM in the test on U251 CNS; 68 µM in the test with SF-268 CNS. The TGI with SNB-75 CNS was over 100 µM; in the test with NCI/ADR-RES ovarian, over 100 µM; in the test with UO-31 renal, 70.8 µM; with A549 NSCLC, over 100 µM.

In the case of `COc1ccc2c(c1)N(Cc1ccc(Cl)cc1)CCC2N1CCCC1=O` (stereo not given), the GI50 in the test with PC-3 prostate was 3 µM; with OVCAR-3 ovarian it was 4.42 µM; in the test on SW-620 colon it was 6.48 µM; with U251 CNS, 3.28 µM; in the test with SF-268 CNS it was 5.41 µM; with SNB-75 CNS it was 3.22 µM. For the same compound, the GI50 in the test with NCI/ADR-RES ovarian was 3.72 µM; in the test on UO-31 renal, 1.79 µM; with A549 NSCLC it was 4.48 µM. Besides, the TGI in the test on PC-3 prostate was 38.7 µM; in the test with OVCAR-3 ovarian, over 100 µM; in the test on SW-620 colon it was over 100 µM; in the test with U251 CNS, 59.6 µM; in the test on SF-268 CNS it was over 100 µM; in the test on SNB-75 CNS, 35.8 µM. The TGI in the test on NCI/ADR-RES ovarian was found to be 49.6 µM; with UO-31 renal, 14.6 µM; with A549 NSCLC, 51.5 µM.

`O=C1c2ccccc2C(=O)N1n1c(Cc2ccc(Cl)cc2)n[nH]c1=O`: the TGI in the test on PC-3 prostate, in the test with OVCAR-3 ovarian, with SW-620 colon, with 786-0 renal, in the test on U251 CNS and with SNB-75 CNS was over 100 µM throughout. In addition, the TGI in the test on NCI/ADR-RES ovarian, with UO-31 renal and in the test on A549 NSCLC was over 100 µM in each case.

Regarding `O=P(O)(O)c1ccc(-c2ccc(I)cc2)cc1`, the TGI in the test with PC-3 prostate, in the test on SW-620 colon, with 786-0 renal, with U251 CNS, in the test with SF-268 CNS and in the test on SNB-75 CNS was over 100 µM each time. Also, the TGI in the test on NCI/ADR-RES ovarian, in the test with UO-31 renal and in the test with A549 NSCLC was over 100 µM throughout.

Consider `Clc1cc(-c2ccccc2)nc(Nc2nc3ccccc3[nH]2)n1`, for which the TGI in the test with PC-3 prostate is over 100 µM; with SW-620 colon, 22.2 µM; with 786-0 renal it was 34.2 µM; in the test on U251 CNS it was 30.7 µM; in the test on SF-268 CNS, 80.9 µM; in the test on SNB-75 CNS, over 100 µM. Moreover, the TGI with NCI/ADR-RES ovarian, with UO-31 renal and in the test on A549 NSCLC was over 100 µM throughout.

`Nc1nc(Cl)cc(OCC2(CO)CCCC2)n1`: the TGI with PC-3 prostate, in the test on OVCAR-3 ovarian, in the test on SW-620 colon, with 786-0 renal, with U251 CNS and in the test on SF-268 CNS was over 100 µM in each case. The TGI in the test with SNB-75 CNS, with NCI/ADR-RES ovarian and in the test with A549 NSCLC was over 100 µM in each case.

For `CCOC(=O)c1c(NS(=O)(=O)c2ccc(C)cc2)sc2c1CCCC2`, the TGI in the test with PC-3 prostate is over 100 µM; in the test with OVCAR-3 ovarian, 47.5 µM; with 786-0 renal, over 100 µM; in the test on SF-268 CNS it was over 100 µM; in the test on SNB-75 CNS it was 66.7 µM; with NCI/ADR-RES ovarian, over 100 µM. In addition, the TGI was 72.7 µM with UO-31 renal and over 100 µM in the test on A549 NSCLC.

`CCC(=O)Nc1cccc(N=Cc2ccc(OC(=O)/C=C\c3ccccc3)cc2)c1`: the TGI with PC-3 prostate, in the test on OVCAR-3 ovarian, in the test on SW-620 colon, with 786-0 renal, in the test on SF-268 CNS and with SNB-75 CNS was over 75 µM each time. In addition, the TGI in the test with NCI/ADR-RES ovarian, in the test with UO-31 renal and in the test on A549 NSCLC was over 75 µM in each case.

For the compound `CSc1cc(Cl)c(C)cc1S(=O)(=O)NC(=O)NNc1ccc(F)cc1`, the TGI in the test on PC-3 prostate, in the test with OVCAR-3 ovarian, in the test with SW-620 colon, with 786-0 renal, in the test with U251 CNS and in the test with SF-268 CNS was over 100 µM throughout. Also, the TGI in the test on SNB-75 CNS, with NCI/ADR-RES ovarian and in the test on A549 NSCLC was over 100 µM in each case.

For `CC(=O)O[C@H]1C(=O)[C@@]2(C)[C@H]([C@H](OC(=O)c3ccccc3)[C@]3(O)C[C@H](OC(=O)[C@H](O)[C@@H](NC(=O)c4ccccc4)c4ccc5ccccc5c4)C(C)=C1C3(C)C)[C@]1(OC(C)=O)CO[C@@H]1C[C@@H]2O`, the TGI with PC-3 prostate was over 50 µM; with SW-620 colon, over 50 µM; in the test with 786-0 renal, 8.59 µM; with U251 CNS, 1.46 µM; with SF-268 CNS, over 50 µM; in the test on SNB-75 CNS, 2.15 µM. Moreover, the TGI with NCI/ADR-RES ovarian was over 50 µM; with UO-31 renal, over 50 µM; in the test on A549 NSCLC, over 42.1 µM.

For the compound `COc1cc(C2S/C(=C/c3ccccc3)C(=O)N2Cc2ccccc2)cc(OC)c1OC` (stereo not given), the TGI was over 100 µM in the test on PC-3 prostate; over 100 µM with 786-0 renal; over 100 µM in the test with U251 CNS; over 100 µM in the test with SF-268 CNS; 73.3 µM in the test with SNB-75 CNS; over 100 µM in the test on NCI/ADR-RES ovarian. Moreover, the TGI in the test on UO-31 renal and with A549 NSCLC was over 100 µM each time.

For `Cc1cc2nc3c(C#N)c4c(c(Nc5ccc(F)cc5)n3c2cc1C)CCC4`, the TGI in the test on PC-3 prostate, with OVCAR-3 ovarian, with SW-620 colon, in the test with 786-0 renal, in the test with U251 CNS and with SF-268 CNS was over 100 µM in each case. Moreover, the TGI in the test on SNB-75 CNS, with NCI/ADR-RES ovarian and in the test on A549 NSCLC was over 100 µM throughout.
